Experiments:
[1] = test system: Candida albicans; assay: Antimicrobial screening by agar dilution; assay type: cell-based; settings: after 10, 20, 40 and 60 minutes at all dilutions 1:100, 1:200, 1:400, 1:800
Protocol: (§1) The antibacterial properties of the synthesized compound 6-(4-hydroxyphenyl)-2-(2-ethoxyethoxy)-4-(4-methoxyphenyl)nicotinonitrile were studied by the method of agar dilution. Test solutions of each compound was prepared in concentration of 1% using dimethylformamide as a solvent then they are diluted in physiological solution to obtain the final experimental dilutions 1:100, 1:200, 1:400, 1:800. The effects of these substances are compared with furacillin in a controllable study. The testing microbes used were gram positive bacteria Staphylococcus aureus, gram negative bacteria Pseudomonas aeruginosa and Escherichia coli and Candida albicans fungus. The experiments used for this survey were meat-pentonlu agar (EPA) for cultivation of bacteria and Saburo environment for the fungus. Each experiment used 1 mL of test solution on each plate […]. Two drops of emulsified with microbes feel were added. All experimental samples were taken from the agar after 10, 20, 40, 60 minutes in the environment on the basis of Patrk planted. The bacteria were cultivated at a temperature of 37° C. for 1 day and the mushroom was kept in a thermostat for […] at a temperature of 28° C. Then results were checked.

[2] = test system: Escherichia coli; assay: Antimicrobial screening by agar dilution; assay type: cell-based; settings: after 10, 20, 40 and 60 minutes at all dilutions 1:100, 1:200, 1:400, 1:800
Protocol: as §1

[3] = test system: Pseudomonas aeruginosa; assay: Antimicrobial screening by agar dilution; assay type: cell-based; settings: after 10, 20, 40 and 60 minutes at all dilutions 1:100, 1:200, 1:400, 1:800
Protocol: as §1

[4] = test system: Staphylococcus aureus; assay: Antimicrobial screening by agar dilution; assay type: cell-based; settings: after 10, 20, 40 and 60 minutes at all dilutions 1:100, 1:200, 1:400, 1:800
Protocol: as §1

In the case of CCOCCOc1nc(-c2ccc(O)cc2)cc(-c2ccc(OC)cc2)c1C#N [6-(4-hydroxyphenyl)-2-(2-ethoxyethoxy)-4-(4-methoxyphenyl)nicotinonitrile], the “inhibition activity (summary in words)” value [1] is reported as “highest inhibition activity”, the “inhibition activity (summary in words)” value [2] is reported as “highest inhibition activity” and the “inhibition activity (summary in words)” value [3] is reported as “highest inhibition activity”. The “inhibition activity (summary in words)” value [4] was “highest inhibition activity” and the melting point was 209 to 211 °C.

From US12071407B1, “6-(4-hydroxyphenyl)-2-(2-ethoxyethoxy)-4-(4-methoxyphenyl)nicotinonitrile as an antimicrobial compound” (KING FAISAL UNIVERSITY, priority 2023, dated 2024)
